Assay results: patent US11400160B2, “Multifunctional conjugates” (E.P.O.S IASIS Research and Development Limited, priority 2017, dated 2022)
Like-named read-outs stand apart in the source and are kept apart here.

Columns and labels:
MCF-7 cells = experiment: Cell viability, crystal violet colorimetric assay; type: cell-based; details: 72 hrs; for EC50: * denotes EC50 value, read-out: EC50 value (starred) MCF-7; for IC50: tested at 0.02-0.1 mM, unstarred values
Method: (§1) Immortalised osteolytic metastatic breast cancer cell lines, a) hormone-dependent MCF-7 and b) hormone refractory MDA-MB231, together with the daughter line MDA-MB231TXSA were incubated with 5 gradual concentrations of compounds of the invention as described below. Cell viability was assessed with the crystal violet colorimetric assay and IC50s were evaluated.
(§2) Medium was removed from cell cultures and cells were fixed with 4% v/v formaldehyde for 5 mins at room temperature. Formalin was then removed and CV added for 10 mins at room temperature followed by several washes with dsH2O. Samples were allowed to dry overnight. The following day, 10% acetic acid was added for 15 mins and optical density at 620 nm was measured. Optical densities versus compound concentrations were plotted in graphs and IC50s estimated by linear regression analysis using the WorkOut (VictorX4) software.
MCF-7, MDA-MB231 and MDA-MB231TXSA cells were seeded in 96-well-plates and allowed to attach overnight. […]
(§3) Cells were cultured in the presence of the compounds for 72 hrs and viability was assessed on day 3 by crystal violet assay. The cell lines were selected for their high bone metastatic potential. The fluorescently transfected line MB231TXSA, derived from line MB231 is also used in animal studies (WP7).

[1] = tested on: metastatic breast cancer cell lines (MCF-7, MDA-MB231, MDA-MB231TXSA); experiment: Cell viability / antiproliferative activity, breast cancer lines; type: cell-based; details: for antiproliferative activity compared with bpp(OEt): esterified compounds and 1:1 mixtures; for effect on cell viability: viability assays and IC50s, 72 hrs
Method: as §1, §2
(§4) MCF-7, MDA-MB231 and MDA-MB231TXSA cells were seeded in 96-well-plates and allowed to attach overnight. The following day media were replaced with fresh media containing the following compounds: Both free tetraethyl methylbisphosphonate (bpp(OEt)) and bpp(OEt) in 1:1 combination with the free chromanol and the biphosphonate conjugates were tested at 5 gradual concentrations of: 0.02, 0.04, 0.06, 0.08 and 0.1 mM.
as §3

MDA-MB231TXSA cells = experiment: Cell viability, crystal violet colorimetric assay; type: cell-based; details: 72 hrs; for IC50: tested at 0.02-0.1 mM, read-out: IC50 values MB231-TXSA
Method: as §1, §2, §4, §3

MDA-MB231 cells = experiment: Cell viability, crystal violet colorimetric assay; type: cell-based; details: 72 hrs; for IC50: tested at 0.02-0.1 mM; for EC50: * denotes EC50 value, read-out: EC50 value (starred) MB231
Method: as §1, §2, §4, §3

[2] = tested on: Caspase-3 activity in MB231 breast cancer cell-line; experiment: Caspase-3 enzymatic activity assay; type: cell-based; details: IC50 concentrations, two-way ANOVA with Bonferroni post-tests
Method: Cells were grown in 12 well-plates in the presence of IC50 concentrations of compounds of the invention or culture medium with 0.1% v/v ethanol as control and were washed with PBS and incubated with lysis buffer for 15 mins at 4° C. Lysates were centrifuged at 15000 g. 20 μl of each lysate suspension was incubated with 100 μl of protease buffer containing 10 μM of fluorescent substrate zDEVD-AFC (3 samples/lysate) for 4 hrs at room temperature. Caspase-3 enzymatic activity was measured every 1 hr by fluorescence with excitation at 405 nm and emission at 515/30 nm.
Fluorescence measurements were plotted in graphs against time and were statistically analysed by two-way ANOVA followed by Bonferroni post-tests to identify statistically significant apoptotic activities of compounds of the invention (see FIG. 3).

[3] = tested on: metastatic breast cancer lines; experiment: DAPI staining of apoptotic nuclei; type: cell-based; details: cells treated with IC50 concentrations
Method: Compounds with statistically significant decrease in viability were further examined to determine whether their effect was due to induced apoptosis based on morphologic criteria in DAPI-stained cells. […] Pro-apoptotic efficacies were compared using two-way analysis of Variance (ANOVA) followed by Bonferroni post-tests.
Growth medium was removed and cells were fixed with 4% v/v formaldehyde in PBS for 5 mins at room temperature. Fixed cells were washed once with PBS and incubated with 1 μg/ml DAPI in PBS for 20 mins at 37° C. Rinsed with PBS and mounted in mounting medium. Coverslips were sealed on glass slides and examined for the presence of apoptotic cells by fluorescence microscopy (see FIG. 2).

[4] = tested on: breast and prostate cancer metastatic cell lines; experiment: Dose response of cell viability of breast and prostate cancer cells (FIG. 1); type: cell-based
[5] = tested on: osteoclasts from RAW264.7 and Human PBMC; experiment: Resorption on pre-loaded whale dentine / osteologic slides (pit formation); type: cell-based, murine
Excerpt: Zoledronic acid was used as control.
(§5) Human peripheral blood mononuclear cells (PBMCs) and the RAW264.7 murine monocytic cell line were differentiated into osteoclast-like cells in the presence of RANKL plus M-CSF and have been used as model systems of osteoclastogenesis. Osteoclast-like cells, from Giant Cell Tumours (GCT) of bone specimens from three independent donors were used to investigate the effect of compounds of the invention on the bone resorbing activity of mature osteoclasts.
Human PBMCs were isolated from normal healthy donors isolated from the buffy coats acquired from the local Red Cross Blood Service. The cells were diluted in Hanks Balanced Salt Solution (HBSS) and separated by gradient centrifugation with Lymphoprep™. Isolated cells were resuspended in α MOD, 10% FCS, L-glutamine (2 mM), Hepes (20 mM), supplemented with M-CSF (25 ng/ml), 1α,25(OH)2 vitamin D3 (10 nM) and dexamethasone (10 nM) and plated into 96-well plates containing whale dentine slices, for the bone resorption assay or directly into wells for TRAP staining. The following day, media were removed and replaced with media as above, supplemented with RANKL (100 ng/ml) in the presence or absence of increasing concentrations of compounds of the invention. Medium and treatments were replaced every three days.
(§6) Cells were cultured in 96-well plates at a density of 1×10^4 cells/well in DMEM medium with 10% FCS, L-glutamine (2 mM) and Hepes (20 mM). Cells were allowed to attach for 4 hrs before treatment with RANKL (50 ng/ml) in the presence or absence of increasing concentrations of compounds of the invention as above. Medium and treatments were replaced on day three and TRAP activity determined on day 5. The overall number of viable cells were determined by crystal violet staining.
Whale dentine slices will be washed in extran, rinsed with distilled water, washed in 70% ethanol and dried overnight. The dentine slices mounted on stubs, carbon-coated and visualised on a Philips XL-20 scanning electron microscope, (SEM) as previously described. Images will be analysed using ImageQuant software and the area of resorption determined for each dentine slice (quadruplicate dentine slices for each treatment). Results are expected to be average resorption area +/− standard errors of the mean (SEM) and the significant differences between treatments will be determined using Students t-tests (2-tailed, unpaired).
(§7) In a separate experiment, pre-loaded bone slices (whale dentine) or commercial forms of hydroxyapatite (osteologic slides) with either free γ-tocopherol (γToc) or γ-tocopherol-bpp(OEt) (BP-γToc) and then washed away unbound drug.

RAW264.7 cells = experiment: In vitro osteoclastogenesis of RAW264.7 (TRAP staining); type: cell-based, murine; details: RANKL-differentiated; γ-tocopherol at 1 μg/ml and 201 μg/ml; bpp(OEt) at increasing concentrations; FIG. 4
Method: as §5, §6
Osteoclast cultures established by the differentiation of RAW264.7 cells in wells were fixed and stained for tartrate resistant acid phosphatase (TRAP) as recommended by the manufacturer on days 4 and 5. TRAP positive cells were visualised by light microscopy and images taken with a digital camera.

[6] = Binding to pre-loaded bone slices / hydroxyapatite after washing; details: pre-loaded whale dentine or osteologic slides, unbound drug washed away
Excerpt: as §7

CCOP(=O)(OCC)C(CCC(=O)Oc1c(C)c(C)c2c(c1C)CCC(C)(CCCC(C)CCCC(C)CCCC(C)C)O2)P(=O)(OCC)OCC (stereo not drawn) [α-toc-bpp(OEt), α-Tocopheryl Bisphosphonic Ester]
EC50 (MCF-7 cells; Exp.3): 152 µM | IC50 (MCF-7 cells; Exp.4): 76.8 µM | antiproliferative activity compared with bpp(OEt) [1]: increased | effect on cell viability [1]: reduced cell viability | IC50 (MDA-MB231TXSA cells; Exp.3): 98.1 µM | IC50 (MDA-MB231TXSA cells; Exp.4): 73 µM | IC50 (MDA-MB231 cells; Exp.3, unstarred values): 128 µM | IC50 (MDA-MB231 cells; Exp.4, unstarred values): 281 µM

γ-tocopheryl Diphosphonic Acid [γ-toc-bpp(OH)]
EC50 (MCF-7 cells; Exp.1): 303 µM | IC50 (MCF-7 cells; Exp.2): 65.1 µM | antiproliferative activity compared with bpp(OEt) [1]: increased | antiproliferative activity compared with γ-tocopherol ([1]; upon esterification of γ-tocopherol): increased | effect on cell viability [1]: reduced cell viability | pro-apoptotic activity (Caspase-3 activity) [2]: did not show significant pro-apoptotic activity | IC50 (MDA-MB231TXSA cells; Exp.1): 92 µM | EC50 (MDA-MB231TXSA cells; Exp.2, * denotes EC50 value, read-out: EC50 value (starred) MB231-TXSA): 182 µM | IC50 (MDA-MB231 cells; Exp.1, unstarred values): 172 µM | IC50 (MDA-MB231 cells; Exp.2): 66.2 µM | apoptotic nuclei (condensed chromatin, fractured nuclei) by DAPI staining [3]: increased numbers of apoptotic nuclei

CC(C)=CCC/C(C)=C/CC/C(C)=C/CC[C@]1(C)CCc2cc(O)c(C)c(C)c2O1 [γ-Tocotrienol]
cell viability on breast and prostate cancer metastatic cell lines [4]: inhibited in a dose-dependent manner

CCOP(=O)(OCC)C(CCC(=O)O)P(=O)(OCC)OCC [bpp(OEt), Tetra Ethyl 4,4-bis(phosphono)-butanoic Acid, reference compound]
cell viability on breast and prostate cancer metastatic cell lines [4]: without effect | IC50 (MCF-7 cells; Exp.1): 107 µM | EC50 (MCF-7 cells; Exp.2): 143 µM | EC50 (MCF-7 cells; Exp.3): 365 µM | EC50 (MCF-7 cells; Exp.4): 1980 µM | antiproliferative/proapoptotic effect in metastatic breast cancer cell-lines [1]: did not have antiproliferative/proapoptotic effect | anti-resorptive activity of the free bisphosphonate [5]: minimal anti-resorptive activity | osteoclastogenesis of Raw264.7 (RAW264.7 cells): inhibited osteoclastogenesis in a dose-dependent manner | IC50 (MDA-MB231TXSA cells; Exp.1): 441 µM | IC50 (MDA-MB231TXSA cells; Exp.2, unstarred values): 129 µM | IC50 (MDA-MB231TXSA cells; Exp.3): 136 µM | IC50 (MDA-MB231TXSA cells; Exp.4): 179 µM | IC50 (MDA-MB231 cells; Exp.1, unstarred values): 106 µM | IC50 (MDA-MB231 cells; Exp.2): 242 µM | EC50 (MDA-MB231 cells; Exp.3): 74.2 µM | EC50 (MDA-MB231 cells; Exp.4): 710 µM | binding to bone substrate / bone mineral [6]: high affinity for bone

Cc1c(C)c2c(c(C)c1O)CC[C@@](C)(CCC[C@H](C)CCC[C@H](C)CCCC(C)C)O2 [α-toc, α-tocopherol, reference compound]
IC50 (MCF-7 cells; Exp.3): 54.7 µM | IC50 (MCF-7 cells; Exp.4): 54.5 µM | IC50 (MDA-MB231TXSA cells; Exp.3): 137 µM | IC50 (MDA-MB231TXSA cells; Exp.4): 88.7 µM | IC50 (MDA-MB231 cells; Exp.3, unstarred values): 103 µM | EC50 (MDA-MB231 cells; Exp.4): 131 µM

α-tocopheryl Bisphosphonic Acid [α-toc-bpp(OH)]
EC50 (MCF-7 cells; Exp.3): 351 µM | IC50 (MCF-7 cells; Exp.4): 64.1 µM | antiproliferative activity compared with bpp(OEt) [1]: increased | effect on cell viability [1]: reduced cell viability | IC50 (MDA-MB231TXSA cells; Exp.3): 88.8 µM | IC50 (MDA-MB231TXSA cells; Exp.4): 75.9 µM | IC50 (MDA-MB231 cells; Exp.3, unstarred values): 61.6 µM | IC50 (MDA-MB231 cells; Exp.4, unstarred values): 238 µM
